Measurements reported in patent US20200308548A1, “Amplifying Beta Cell Differentiation with Small Molecules BET (Bromodomain And Extraterminal Family Of Bromodomain-Containing Proteins) Inhibitors” (Centre National de la Recherche Scientifique (CNRS), priority 2016, published 2020).

How the values were obtained:
[1] = tested on: mouse embryonic pancreatic buds; assay: RT-qPCR of Ngn3, Ins1, Ins2 and MafA in cultured mouse pancreatic buds; format: cell-based; conditions: for Ngn3 relative mRNA levels: 0.5 μM IBET-151 or 0.1 μM (+)-JQ1, vs DMSO
Protocol: (§1) Mouse pancreatic buds were dissected from E11.5 C57Bl6/J embryos and placed at the air/medium interface on 0.45μm filters in culture dishes containing RPMI medium supplemented with 10% fetal calf serum, 1% penicillin-streptomycin, 1% non-essential amino acids and 10mM HEPES. Pancreatic buds were cultured at 37° C. with 5% CO2.
(§2) IBET-151 was obtained from Sigma-Aldrich and (+)/-JQ1 from Abcam. Stock solutions were prepared in DMSO. Inhibitors or DMSO (0.1% final concentration) were added to the culture medium which was changed daily.
Total RNA from three or more pancreatic buds was extracted using Qiagen RNA extraction microkit and 250ng were reverse transcribed using maxima first strand cDNA synthesis kit from Thermo Fisher. Real-time PCR analysis of Ngn3, MafA and Cyclophylin A were performed in 1× Sybr Green Powermix in QuantStudio 3 Applied Biosystem system. Real-time PCR analysis of Ins1 and Ins2 were performed in 1× TaqMan Gene Expression Mastermix in a QuantStudio 3 Applied Biosystem system. Relative expression of Ngn3, MafA and Cyclophylin A were calculated using the comparative method of relative quantification (2^−ΔΔCT) normalized to cyclophilin A expression. Values represent the average of three experiments with standard deviation error bars. Statistical analysis was performed using unpaired Student t test.

[2] = tested on: mouse embryonic pancreatic buds; assay: NGN3 immunohistochemistry and count of positive nuclei in cultured mouse pancreatic buds; format: cell-based; conditions: five days culture; 0.5 μM IBET-151 or 0.1 μM (+)-JQ1; vs DMSO
Protocol: as §1, §2
Pancreatic buds were fixed in 3.7% formaldehyde, pre-embedded in agarose gel (4% of type VII low gelling temperature agarose (Sigma-Aldrich)) and embedded in paraffin. Sections (4 μm thick) were collected and processed for 3,3' diaminobenzidine immunohistological staining of NGN3, as previously described (Attali et al., 2007).
Photographs representative of a whole pancreas were taken using a transmitted light microscope (Leitz DMRB, Leica) and digitized using a Hammamatsu cooled 3CCCD camera. Total number of NGN3 positive nuclei per rudiment were then manually counted. Values represent the average of three experiments with standard deviation error bars. Statistical analysis was performed using unpaired Student t test.

[3] = tested on: hiPSC-derived pancreatic progenitors; assay: Neurogenin 3 mRNA by qPCR in hiPSC-derived pancreatic progenitors differentiated towards endocrine lineage; format: cell-based, human; conditions: three days, six different concentrations
Protocol: (§3) Human induced pluripotent stem cells (iPSC) and human embryonic stem cells (ESC) were cultured on standard tissue culture plastic ware coated with hESC-qualified matrigel in mTeSR1™medium. Cells were passaged every three to four days as single cells using TrypLe Select. Rock inhibitor (5 μM) was included at the first day of passaging. Three different iPSC lines derived from a total of two individual donors and one ESC line were applied.
For differentiation, cells were seeded as single cells in mTeSR1 with 5 μM Rock inhibitor into tissue culture plates (Corning CellBind) at densities ranging between 300-400.000 cells/cm^2. Cells were cultured for 24 h at 37° C., 5% CO2. Following incubation, medium was aspirated and the cells were washed once in PBS before adding the differentiation medium. […]
RNA was isolated from cells using NucleoSpin RNA/protein isolation kit (Macherey-Nagel). RNA was quantified using a nanodrop and […] RNA pr. sample was converted to cDNA using iScript reverse transcription kit (Bio-Rad). Gene expression was evaluated using Tagman gene expression assay for Neurogenin 3(Hs01875204, Applied Biosystems).
Neurogenin 3 transcripts were normalized to the average expression of two housekeeping genes (ACTB, Hs01060665_g1 and HPRT1, Hs99999909_m1, both from Applied Biosystems). Relative expression was calculated using the ΔΔCt method (FIGS. 2B and 2C).

[4] = tested on: hiPSC-derived pancreatic progenitors; assay: Viability and cell number by Nucleocounter after BET inhibitor treatment; format: cell-based, human; conditions: three day treatment, all tested concentrations, vs concentration matched DMSO
Protocol: as §3
(§4) For differentiation, cells were seeded as single cells in mTeSR1 with 5 μM Rock inhibitor into tissue culture plates (Corning CellBind) at densities ranging between 300-400.000 cells/cm^2. Cells were cultured for 24 h at 37° C., 5% CO2. Following incubation, medium was aspirated and the cells were washed once in PBS before adding the differentiation medium. Differentiation was carried out essentially as described in Rezania et al. (Rezania et al., 2014b). The differentiation protocol is outlined in FIG. 2A. […]
Viability of the cells and total number of cells was analyzed using a Nucleocounter NC3000 Cell analyzer (Chemometec).

[5] = tested on: hiPSC-derived endocrine progenitor cells; assay: Neurogenin 3 protein by immunofluorescence microscopy; format: cell-based, human; conditions: three days; 500 nM (+)-JQ1 or 2000 nM IBET-151; vs DMSO
Protocol: as §3, §4

[6] = tested on: hiPSC-derived endocrine progenitor cells; assay: Percentage of Neurogenin 3 protein expressing cells by flow cytometry; format: cell-based, human; conditions: three days; 400 nM (+)-JQ1 or 2000 nM IBET-151; three biological experiments
Protocol: as §3, §4
(§5) Differentiation efficiency was analyzed by flow cytometry essentially as described in van de Bunt et al., 2016. […] Unconjugated antibodies were detected with fluorophore conjugated secondary antibodies.

[7] = tested on: genetically modified hESC line that express GFP under the control of the Neurogenin 3 promoter; assay: GFP reporter under Neurogenin 3 promoter in differentiated hESC line; format: cell-based, human; conditions: three days; 400 nM (+)-JQ1 or 2000 nM IBET-151; vs DMSO
Protocol: as §3, §4, §5

[8] = 5 days with inhibitor (0.5 μM IBET-151 or 0.1 μM (+)-JQ1), then 9 additional days without inhibitor

COc1cc2c(cc1-c1c(C)noc1C)ncc1[nH]c(=O)n([C@H](C)c3ccccn3)c12 [IBET-151]
Ins1 expression increase [1, 8]: 3 fold
Ins2 expression increase [1, 8]: 3 fold
MafA expression increase [1, 8]: 10 folds
Ngn3 relative mRNA levels ([1]; after 3 days of treatment): strongly increased
Ngn3 relative mRNA levels ([1]; after 7 days): remain increased
number of NGN3 positive nuclei [2]: increased
Neurogenin 3 mRNA expression [3]: dose-dependent increase
concentration at which maximum Neurogenin 3 mRNA expression is achieved [3]: 2000 nM
cell number compared to controls [4]: No obvious difference
viability compared to controls [4]: No obvious difference
number of cells positive for Neurogenin 3 protein [5]: clear increase
staining intensity of Neurogenin 3 in individual cells [5]: stronger
number of cells expressing Neurogenin 3 protein relative to control treated cells [6]: approximately 1.6 fold
cells expressing GFP compared to the control [7]: more cells expressing GFP
